Assay results reported in patent publication EP4737445A1, “NOVEL SATURATED HETEROCYCLE-SUBSTITUTED HETEROARYL-CARBONOHYDRAZONOYL DICYANIDE COMPOUND AND USE THEREOF” (Korea Institute of Science and Technology, priority 2023, dated 2025).

Assays:
Tau-BiFC cells = test: Cell viability (stained nuclei count) in Tau-BiFC cells; assay type: cell-based; conditions: @10 µM; Tau-BiFC cell line; Forskolin-only group = 100%
In short: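 Tau-BiFC cells were co-treated with compound (1, 3, 10 µM for screening; 0.03–30 µM for IC50) and 30 µM Forskolin for 48 h. BiFC fluorescence was normalised to the Forskolin-only window for aggregation; viability came from Hoechst-stained nuclei counts relative to Forskolin-only (100%). IC50 was derived by nonlinear regression.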

[1] = Liver microsomal stability, mouse; assay type: in vitro ADME; conditions: 1 µM compound; 0.5 mg/mL microsomes; NADPH; 30 minutes at 37°C
Protocol: Liver microsomal stability by the compounds prepared according to Examples 1 to 46 was confirmed. Specifically, four types of liver microsomes (human, dog, rat, and mouse each at 0.5 mg/mL), 0.1 M phosphate buffer solution (pH 7.4), and the compounds at 1 µM concentration were added and pre-incubated at 37°C for 5 minutes, and then NADPH generation system solution was added and incubated at 37°C for an additional 30 minutes. Thereafter, an acetonitrile solution containing an internal standard (chloropropamide) was added to terminate the reaction, and after centrifugation for 5 minutes (14,000 rpm, 4°C), the supernatant was injected into an LC-MS/MS system to analyze the substrate drug, thereby evaluating the metabolic stability of 8 compounds.
The amount of remaining substrate through the reaction was analyzed using a Shimadzu Nexera XR system and TSQ vantage (Thermo). A Kinetex XB-C18 (2.1 × 100 mm, 2.6 µm, particle size; Phenomenex, USA) was used as the HPLC column, and (A) distilled water containing 0.1% formic acid and (B) acetonitrile containing 0.1% formic acid were used as mobile phases. Analyst software (version 1.6.3) and Xcalibur (version 1.6.1) were used for data analysis. The calculated results are shown in Table 5 below: Liver microsomal stability data of novel compounds from […] (human, rat, and mouse).

CYP1A2 = target: T1, CYP1A2 (Homo sapiens, UniProt P05177); test: CYP isoenzyme activity inhibition in human liver microsomes, CYP1A2; assay type: in vitro ADME; conditions: 10 µM compound; human liver microsomes 0.25 mg/mL; relative to control without compound
T1 construct: human liver microsomes (0.25 mg/mL); from tissue; host or cells: human liver microsomes
T1 sequence (P05177 1-516): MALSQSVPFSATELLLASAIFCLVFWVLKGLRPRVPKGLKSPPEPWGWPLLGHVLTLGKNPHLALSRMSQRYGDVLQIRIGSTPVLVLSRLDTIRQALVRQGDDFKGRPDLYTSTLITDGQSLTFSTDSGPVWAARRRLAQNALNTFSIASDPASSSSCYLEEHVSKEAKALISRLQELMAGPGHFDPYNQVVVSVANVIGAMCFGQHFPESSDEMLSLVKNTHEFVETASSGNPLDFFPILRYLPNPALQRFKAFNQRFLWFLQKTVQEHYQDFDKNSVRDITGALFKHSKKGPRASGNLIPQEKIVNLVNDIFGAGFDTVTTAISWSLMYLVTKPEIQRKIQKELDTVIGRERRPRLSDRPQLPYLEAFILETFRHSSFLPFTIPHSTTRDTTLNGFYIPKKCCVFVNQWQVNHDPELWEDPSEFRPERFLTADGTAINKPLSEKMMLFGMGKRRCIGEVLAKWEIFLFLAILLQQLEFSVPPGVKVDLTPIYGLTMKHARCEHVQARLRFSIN
Protocol: The CYP isoenzyme activity inhibitory effect by the compounds prepared according to Examples 1 to 46 was confirmed. Specifically, human liver microsomes (0.25 mg/mL), 0.1 M phosphate buffer solution (pH 7.4), a substrate drug cocktail of five drug metabolizing enzymes (Phenacetin 50 µM, Diclofenac 10 µM, S-mephenytoin 100 µM, Dextromethorphan 5 µM, and Midazolam 2.5 µM), and the compounds were added at concentrations of 0 or 10 µM, respectively, and pre-incubated at 37°C for 5 minutes, and then NADPH generation system solution was added and incubated at 37°C for an additional 15 minutes. Thereafter, an acetonitrile solution containing an internal standard (Terfenadine) was added to terminate the reaction, and after centrifugation for 5 minutes (14,000 rpm, 4°C), the supernatant was injected into an LC-MS/MS system to simultaneously analyze the metabolites of the substrate drugs, thereby evaluating the drug metabolizing enzyme inhibitory activity.
The metabolites of each CYP isoenzyme marker drug generated through the reaction were analyzed using a Shimadzu Nexera XR system and TSQ vantage (Thermo). A Kinetex C18 (2.1 × 100 mm, 2.6 µm, particle size; Phenomenex, USA) was used as the HPLC column, and (A) distilled water containing 0.1% formic acid and (B) acetonitrile containing 0.1% formic acid were used as mobile phases, and a gradient program as shown in Table 6 below was applied.
The generated metabolites were quantified using MRM (Multiple Reaction Monitoring) quantitative mode, and Xcalibur (version 1.6.1) was used for data analysis. To show the CYP isoenzyme activity inhibitory effect of the novel compounds prepared according to the Examples of the disclosure, the % activity of CYP isoenzymes relative to the control group without compound addition is shown in Table 6 below. Additionally, to confirm the difference in effect according to substituents, Comparative Compounds 1 and 5, which are two compounds that share a similar parent nucleus structure with Compounds 1 to 46 of the disclosure while Cy is substituted with aromatic heteroaryl instead of saturated heterocyclyl, were selected as comparative compounds and their activities are shown together.

Row | SMILES | Cell viability (% @10µM) (Tau-BiFC cells) [%] | Mouse microsomes (% remaining) [1] [% remaining] | CYP1A2 (% activity) (CYP1A2)
1 | COC1CCN(c2nc3ccc(NN=C(C#N)C#N)cc3o2)CC1 [Compound 17, (2-(4-methoxypiperidin-1-yl)benzo[d]oxazol-6-yl)carbonohydrazonoyl dicyanide] | 100 | > 100 | 83.2
2 | CC1CN(c2nc3ccc(NN=C(C#N)C#N)cc3o2)CC(C)O1 (stereo not drawn) [Compound 18, (2-(2,6-dimethylmorpholino)benzo[d]oxazol-6-yl)carbonohydrazonoyl dicyanide] | 100 | 86.2 | 98.9
3 | N#CC(C#N)=NNc1ccc2nc(N3C4CCC3COC4)oc2c1 [Compound 20, (2-(3-oxa-8-azabicyclo[3.2.1]octan-8-yl)benzo[d]oxazol-6-yl)carbonohydrazonoyl dicyanide] | 96 | 95.4 | 55.6
4 | N#CC(C#N)=NNc1ccc2nc(N3CC4CCC(C3)O4)sc2c1 [Compound 23, (2-(8-oxa-3-azabicyclo[3.2.1]octan-3-yl)benzo[d]thiazol-6-yl)carbonohydrazonoyl dicyanide] | 92 | 86.6 | 70.6
5 | N#CC(C#N)=NNc1ccc2nc(N3CC4CCC(C3)O4)oc2c1 [Compound 26, (2-(8-oxa-3-azabicyclo[3.2.1]octan-3-yl)benzo[d]oxazol-6-yl)carbonohydrazonoyl dicyanide] | 99 | 99 | 79.1
6 | CC(C)N1CCN(c2nc3ccc(NN=C(C#N)C#N)cc3o2)CC1 [Compound 28, (2-(4-isopropylpiperazin-1-yl)benzo[d]oxazol-6-yl)carbonohydrazonoyl dicyanide] | 99 | 81.8 | 95.5
7 | CC(=O)N1CCN(c2nc3ccc(NN=C(C#N)C#N)cc3s2)CC1 [Compound 30, (2-(4-acetylpiperazin-1-yl)benzo[d]thiazol-6-yl)carbonohydrazonoyl dicyanide] | 99 | 83.8 | 88.9
8 | CC(=O)N1CCN(c2nc3ccc(NN=C(C#N)C#N)cc3o2)CC1 [Compound 31, (2-(4-acetylpiperazin-1-yl)benzo[d]oxazol-6-yl)carbonohydrazonoyl dicyanide] | 100 | > 100 | 92.7
9 | CCn1c(N2CCOCC2)nc2ccc(NN=C(C#N)C#N)cc21 [Compound 32, (1-ethyl-2-morpholino-1H-benzo[d]imidazol-6-yl)carbonohydrazonoyl dicyanide] | 98 | 92.3 | 78.9
10 | CCn1c(N2CCOCC2)nc2cc(NN=C(C#N)C#N)ccc21 [Compound 33, (1-ethyl-2-morpholino-1H-benzo[d]imidazol-5-yl)carbonohydrazonoyl dicyanide] | 97 | 89 | 75.5
11 | Cn1c(N2C3CCC2COC3)nc2ccc(NN=C(C#N)C#N)cc21 [Compound 34, (2-(3-oxa-8-azabicyclo[3.2.1]octan-8-yl)-1-methyl-1H-benzo[d]imidazol-6-yl)carbonohydrazonoyl dicyanide] | 100 | 78.2 | 85.8
12 | Cn1c(N2C3CCC2COC3)nc2cc(NN=C(C#N)C#N)ccc21 [Compound 35, (2-(3-oxa-8-azabicyclo[3.2.1]octan-8-yl)-1-methyl-1H-benzo[d]imidazol-5-yl)carbonohydrazonoyl dicyanide] | 100 | 95.1 | 81.5
13 | N#CC(C#N)=NNc1ccc2nc(NC(=O)N3CCOCC3)sc2c1 [Compound 38, (2-(morpholine-4-carboxamido)benzo[d]thiazol-6-yl)carbonohydrazonoyl dicyanide] | 97 | 86.1 | 83.9
14 | CC1CN(C(=O)Nc2nc3ccc(NN=C(C#N)C#N)cc3s2)CC(C)O1 (stereo not drawn) [Compound 39, (2-(2,6-dimethylmorpholine-4-carboxamido)benzo[d]thiazol-6-yl)carbonohydrazonoyl dicyanide] | 98 | 88.4 | 84
15 | N#CC(C#N)=NNc1ccc2nc(NC(=O)N3CC4CCC(C3)O4)sc2c1 [Compound 40, (2-(8-oxa-3-azabicyclo[3.2.1]octane-3-carboxamido)benzo[d]thiazol-6-yl)carbonohydrazonoyl dicyanide] | 98 | 93.4 | 80.2
16 | N#CC(C#N)=NNc1ccc2nc(N3CC[C@@H](F)C3)oc2c1 [Compound 41, (R)-(2-(3-fluoropyrrolidin-1-yl)benzo[d]oxazol-6-yl)carbonohydrazonoyl dicyanide] | 100 | 65.3 | 71.9
